Literature values in US12403113B2, “Composition containing creatine fatty ester for use in medicine” (COMMISSARIAT À L'ÉNERGIE ATOMIQUE ET AUX ÉNERGIES …, priority 2019, dated 2025).

What was measured:
CrT−/y mice = conditions: 0.02 mg/g body/weight/day for 5 days, intracerebroventricular; preliminary
CTD patients = conditions: pure creatine
DMD patients = conditions: 5 g of creatine/day for 8 weeks, oral
[1] = tested on: Huntington's disease patients; conditions: 8 g/day for 16 weeks, 64 patients

| Structure (SMILES) | performance in the object recognition task (CrT−/y mice) | improvement in CTD patients (CTD patients) | muscle Phosphocreatine/Inorganic Phosphate ratio (DMD patients) | muscle strength in short term (DMD patients) | tolerability (DMD patients; 18 patients vs placebo) | serum 8-hydroxy-2′-deoxyguanosine (marker of oxidative DNA damage) [1] | health and longevity (mice) |
| --- | --- | --- | --- | --- | --- | --- | --- |
| CCCCCCCCCCCCOC(=O)CN(C)C(=N)N [DCE, dodecyl creatine ester] | significantly improves |  |  |  |  |  |  |
| CN(CC(=O)O)C(=N)N [creatine, 2-1(methylguanidino) acetic acid] |  | does not lead to any improvement | significantly improved | preserved | well tolerated | marked decrease | improves health and longevity |
